How the values were obtained:
[1] = biological target: Phosphatidylinositol 4,5-bisphosphate 3-kinase catalytic subunit alpha isoform (Homo sapiens, UniProt P42336); assay: Inhibition of recombinant human full length N-terminal GST-tagged PI3Kalpha (1 to 1068 residues)/PIK3R1 (1 to 724 residues) expressed in baculovirus expression system using PIP2 as substrate incubated for 1 hr by ADP-Glo assay
HepG2 = assay: cells; settings: Homo sapiens, HepG2, 72 h
HeLa = assay: Antiproliferative activity against human HeLa cells assessed as reduction in cell viability incubated for 72 hrs by MTT assay; type: functional, cell-based
A-375 = assay: Antiproliferative activity against human A375 cells assessed as reduction in cell viability incubated for 72 hrs by MTT assay; type: functional, cell-based; settings: A-375, 72 h
HCT-116 = assay: Antiproliferative activity against human HCT116 cells assessed as reduction in cell viability incubated for 72 hrs by MTT assay; type: functional, cell-based; settings: HCT-116, 72 h
A549 = assay: cells; settings: Homo sapiens, A549, 72 h
[2] = biological target: PI3-kinase p110-delta/p85-alpha (Homo sapiens, UniProt O00329); assay: Inhibition of recombinant human full length N-terminal GST-tagged PI3Kdelta (1 to 1044 residues)/PIK3R1 (1 to 724 residues) expressed in baculovirus expression system using PIP2 as substrate incubated for 2 hrs by ADP-Glo assay
[3] = biological target: Serine/threonine-protein kinase mTOR (Homo sapiens, UniProt P42345); assay: Inhibition of recombinant human N-terminal FLAG-tagged mTOR (1362 to end residues) using Ulight-4E-BP1 as substrate incubated for 30 mins by fluorescence assay
MCF7 = assay: cells; settings: Homo sapiens, MCF7, 72 h

Sequence of PI3-kinase p110-delta/p85-alpha (P27986 whole entry, the tested form may be a part): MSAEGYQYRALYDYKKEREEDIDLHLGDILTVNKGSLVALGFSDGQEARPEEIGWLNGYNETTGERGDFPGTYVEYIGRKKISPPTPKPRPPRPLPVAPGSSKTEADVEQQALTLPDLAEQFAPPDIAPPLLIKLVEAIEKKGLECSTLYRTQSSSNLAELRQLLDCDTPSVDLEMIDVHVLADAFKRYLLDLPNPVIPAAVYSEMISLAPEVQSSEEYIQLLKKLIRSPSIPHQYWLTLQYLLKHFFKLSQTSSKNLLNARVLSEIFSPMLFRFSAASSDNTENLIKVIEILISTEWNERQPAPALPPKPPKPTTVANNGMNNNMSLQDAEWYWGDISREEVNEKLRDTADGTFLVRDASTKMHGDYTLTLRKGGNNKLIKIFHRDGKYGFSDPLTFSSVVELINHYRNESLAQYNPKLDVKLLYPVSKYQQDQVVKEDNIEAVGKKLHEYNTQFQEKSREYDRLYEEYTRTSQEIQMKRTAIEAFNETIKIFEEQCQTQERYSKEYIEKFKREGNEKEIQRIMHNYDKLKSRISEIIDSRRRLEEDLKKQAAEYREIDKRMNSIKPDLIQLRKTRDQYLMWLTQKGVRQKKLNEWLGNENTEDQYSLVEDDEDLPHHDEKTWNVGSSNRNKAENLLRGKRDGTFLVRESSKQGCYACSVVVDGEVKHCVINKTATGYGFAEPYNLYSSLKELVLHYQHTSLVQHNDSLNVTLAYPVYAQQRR
Sequence of PI3-kinase p110-delta/p85-alpha (O00329 whole entry, the tested form may be a part): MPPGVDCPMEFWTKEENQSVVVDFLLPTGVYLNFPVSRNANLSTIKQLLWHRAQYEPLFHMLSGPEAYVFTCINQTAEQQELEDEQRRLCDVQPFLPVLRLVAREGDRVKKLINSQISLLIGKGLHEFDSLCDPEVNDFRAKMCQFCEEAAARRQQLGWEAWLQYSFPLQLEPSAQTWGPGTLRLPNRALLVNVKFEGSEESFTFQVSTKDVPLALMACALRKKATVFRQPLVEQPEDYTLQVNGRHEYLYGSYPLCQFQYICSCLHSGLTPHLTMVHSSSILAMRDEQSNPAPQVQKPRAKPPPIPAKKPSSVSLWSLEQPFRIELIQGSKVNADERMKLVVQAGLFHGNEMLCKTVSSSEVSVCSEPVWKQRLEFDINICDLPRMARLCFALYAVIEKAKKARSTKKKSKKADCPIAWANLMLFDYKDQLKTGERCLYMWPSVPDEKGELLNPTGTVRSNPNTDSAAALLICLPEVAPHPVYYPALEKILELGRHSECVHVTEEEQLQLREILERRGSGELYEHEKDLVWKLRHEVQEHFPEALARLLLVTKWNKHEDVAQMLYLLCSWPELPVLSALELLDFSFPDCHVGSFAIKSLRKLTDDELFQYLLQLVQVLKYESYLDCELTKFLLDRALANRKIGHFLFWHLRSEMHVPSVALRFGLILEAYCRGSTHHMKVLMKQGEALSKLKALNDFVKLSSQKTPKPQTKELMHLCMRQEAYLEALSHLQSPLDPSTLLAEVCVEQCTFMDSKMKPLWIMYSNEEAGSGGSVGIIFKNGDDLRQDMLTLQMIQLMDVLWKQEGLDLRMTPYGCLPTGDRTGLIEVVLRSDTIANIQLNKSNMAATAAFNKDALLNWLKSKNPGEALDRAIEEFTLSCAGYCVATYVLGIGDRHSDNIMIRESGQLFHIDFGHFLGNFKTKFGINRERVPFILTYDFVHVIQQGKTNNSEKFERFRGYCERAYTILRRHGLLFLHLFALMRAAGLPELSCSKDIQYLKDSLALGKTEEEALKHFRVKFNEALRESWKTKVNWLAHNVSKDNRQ
Sequence of Phosphatidylinositol 4,5-bisphosphate 3-kinase catalytic subunit alpha isoform (P42336 whole entry, looked up, the tested form may be a part, canonical isoform): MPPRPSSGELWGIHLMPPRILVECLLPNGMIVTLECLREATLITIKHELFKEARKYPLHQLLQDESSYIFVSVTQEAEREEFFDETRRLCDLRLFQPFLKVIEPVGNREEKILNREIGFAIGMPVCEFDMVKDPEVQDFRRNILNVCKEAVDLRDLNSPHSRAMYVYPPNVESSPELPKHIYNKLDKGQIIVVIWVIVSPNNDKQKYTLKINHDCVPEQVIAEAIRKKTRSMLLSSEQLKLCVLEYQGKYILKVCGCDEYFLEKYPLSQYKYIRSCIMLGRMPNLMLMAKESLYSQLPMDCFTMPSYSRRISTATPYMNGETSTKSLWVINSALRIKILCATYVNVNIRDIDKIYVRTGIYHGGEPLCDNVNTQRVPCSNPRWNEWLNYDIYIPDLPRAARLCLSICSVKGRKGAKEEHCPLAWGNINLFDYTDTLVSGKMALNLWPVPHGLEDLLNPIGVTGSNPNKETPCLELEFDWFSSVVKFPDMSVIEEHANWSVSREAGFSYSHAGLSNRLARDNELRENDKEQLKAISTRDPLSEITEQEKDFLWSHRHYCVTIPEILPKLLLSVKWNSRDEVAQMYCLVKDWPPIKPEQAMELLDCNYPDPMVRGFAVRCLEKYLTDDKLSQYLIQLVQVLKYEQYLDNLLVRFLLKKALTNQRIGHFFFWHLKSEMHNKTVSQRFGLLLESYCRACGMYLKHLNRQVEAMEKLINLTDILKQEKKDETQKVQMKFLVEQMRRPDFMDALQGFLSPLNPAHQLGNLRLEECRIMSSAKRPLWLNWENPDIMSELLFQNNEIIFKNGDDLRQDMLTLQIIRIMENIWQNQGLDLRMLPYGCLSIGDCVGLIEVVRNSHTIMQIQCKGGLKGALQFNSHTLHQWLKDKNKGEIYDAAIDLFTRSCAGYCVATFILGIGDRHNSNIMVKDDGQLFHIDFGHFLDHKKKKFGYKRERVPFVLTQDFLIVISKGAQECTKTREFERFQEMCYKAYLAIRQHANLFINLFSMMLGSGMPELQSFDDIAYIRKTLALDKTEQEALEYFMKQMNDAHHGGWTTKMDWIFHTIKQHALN

SMILES | IC50 [1] | IC50 (HepG2) | IC50 (HeLa) | IC50 (A-375) | IC50 (HCT-116) | IC50 (A549) | IC50 [2] | IC50 [3] | IC50 (MCF7)
COc1ncc(-c2ccc3c(c2)NC(=O)CO3)cc1NS(=O)(=O)c1ccc(F)cc1 | 0.5 µM | 6.59 µM | 7.11 µM | 26.3 µM | 24.9 µM | 8.07 µM | 0.3 µM | 0.635 µM | 32.3 µM
COc1ncc(-c2ccc3c(c2)N(c2ccc(C)cc2)C(=O)CO3)cc1NS(=O)(=O)c1ccc(F)cc1 | 0.012 µM | 28.3 µM | 4.65 µM | 12.9 µM | 22.7 µM | 5.87 µM | 0.017 µM | 0.0138 µM | 15.4 µM
CC(C)N1C(=O)COc2ccc(-c3cccc(NS(=O)(=O)c4ccc(F)cc4)c3)cc21 | > 1 µM | > 40 µM | 22.7 µM | > 40 µM | 22.6 µM | 29.4 µM | > 1 µM | > 1 µM | 26 µM
O=C1COc2ccc(-c3cccc(NS(=O)(=O)c4ccc(F)cc4)c3)cc2N1c1ccccc1 | > 1 µM | 30.3 µM | 17.7 µM | > 40 µM | > 40 µM | > 40 µM | > 1 µM | > 1 µM | > 40 µM
COc1ncc(-c2ccc3c(c2)N(C2CC2)C(=O)CO3)cc1NS(=O)(=O)c1ccc(F)cc1 | 0.131 µM | 14.4 µM | 6.03 µM | 23.9 µM | 24.3 µM | 3.32 µM | 0.162 µM | 0.253 µM | 35.2 µM
O=C1COc2ccc(-c3cccc(NS(=O)(=O)c4ccc(F)cc4)c3)cc2N1c1ccc(F)cc1 | > 1 µM | > 40 µM | > 40 µM | > 40 µM | > 40 µM | > 40 µM | > 10 µM | > 1 µM | > 40 µM
Cc1ccc(N2C(=O)COc3ccc(-c4ccc(O)cc4)cc32)cc1 | > 1 µM | > 40 µM | > 40 µM | > 40 µM | > 40 µM | > 40 µM | > 1 µM | > 1 µM | 26.2 µM
O=C1COc2ccc(-c3ccc(O)cc3)cc2N1C1CCCCC1 | > 10 µM | > 40 µM | > 40 µM | > 40 µM | > 40 µM | > 40 µM | > 1 µM | > 1 µM | > 40 µM
O=C1COc2ccc(-c3ccc(O)cc3)cc2N1c1ccc(Cl)cc1 | > 1 µM | > 40 µM | > 40 µM | > 40 µM | 39.6 µM | > 40 µM | > 1 µM | > 1 µM | > 40 µM
COc1cccc(N2C(=O)COc3ccc(-c4ccc(O)cc4)cc32)c1 | > 1 µM | 26.1 µM | > 40 µM | 30.4 µM | 15.3 µM | > 40 µM | > 1 µM | > 1 µM | > 40 µM
COc1ncc(-c2ccc3c(c2)N(c2ccc(F)cc2)C(=O)CO3)cc1NS(=O)(=O)c1ccc(F)cc1 | 0.021 µM | 36.4 µM | 10.5 µM | > 40 µM | > 40 µM | 6.5 µM | 0.019 µM | 0.0349 µM | > 40 µM
O=C1COc2ccc(-c3cnc4ccccc4c3)cc2N1c1ccc(F)cc1 | > 1 µM | 37.2 µM | 38.8 µM | > 40 µM | > 40 µM | > 40 µM | > 1 µM | > 1 µM | > 40 µM
O=C1COc2ccc(-c3ccc(O)cc3)cc2N1 | > 1 µM | 38.1 µM | > 40 µM | > 40 µM | > 40 µM | > 40 µM | > 1 µM | > 1 µM | > 40 µM
COc1cccc(N2C(=O)COc3ccc(-c4cnc5ccccc5c4)cc32)c1 | > 1 µM | 2.08 µM | 11.3 µM | 23.6 µM | 8.24 µM | > 40 µM | > 1 µM | > 1 µM | > 40 µM
CC(C)N1C(=O)COc2ccc(-c3ccc(O)cc3)cc21 | > 1 µM | > 40 µM | > 40 µM | > 40 µM | > 40 µM | > 40 µM | > 1 µM | > 1 µM | > 40 µM
COc1ccc(N2C(=O)COc3ccc(-c4ccc(O)cc4)cc32)cc1 | > 1 µM | 10.8 µM | 16.4 µM | > 40 µM | 26.1 µM | > 40 µM | > 1 µM | > 1 µM | 17.3 µM
O=C1COc2ccc(-c3ccc(O)cc3)cc2N1c1ccccc1 | > 1 µM | > 40 µM | > 40 µM | > 40 µM | > 40 µM | > 40 µM | > 1 µM | > 1 µM | 29 µM
O=C1COc2ccc(-c3cnc(Cl)c(NS(=O)(=O)c4ccc(F)cc4)c3)cc2N1 | 0.115 µM | > 40 µM | 15.6 µM | > 40 µM | > 40 µM | > 40 µM | 0.092 µM | 0.328 µM | > 40 µM
COc1ccc(N2C(=O)COc3ccc(-c4cccc(NS(=O)(=O)c5ccc(F)cc5)c4)cc32)cc1 | > 1 µM | 29.8 µM | 13.2 µM | 38.5 µM | 28.3 µM | 38.2 µM | > 1 µM | > 1 µM | 32.4 µM
COc1ccc(N2C(=O)COc3ccc(-c4cnc5ccccc5c4)cc32)cc1 | > 1 µM | > 40 µM | > 40 µM | > 40 µM | > 40 µM | > 40 µM | > 1 µM | > 1 µM | > 40 µM
O=C1COc2ccc(-c3cccc(NS(=O)(=O)c4ccc(F)cc4)c3)cc2N1c1ccc(Cl)cc1 | > 1 µM | 27.8 µM | 35 µM | 32.5 µM | 23.9 µM | 31.6 µM | > 1 µM | > 1 µM | 39.8 µM
CC(C)N1C(=O)COc2ccc(-c3cnc(Cl)c(NS(=O)(=O)c4ccc(F)cc4)c3)cc21 | 0.0155 µM | 21.5 µM | 5.38 µM | 25.5 µM | 18.9 µM | 5.1 µM | 0.0038 µM | 0.0043 µM | 26.6 µM
COc1ncc(-c2ccc3c(c2)N(C(C)C)C(=O)CO3)cc1NS(=O)(=O)c1ccc(F)cc1 | 0.0453 µM | 37.2 µM | 2.79 µM | 9.95 µM | 19.2 µM | 4.92 µM | 0.018 µM | 0.0036 µM | 16.9 µM
O=C1COc2ccc(-c3cccc(NS(=O)(=O)c4ccc(F)cc4)c3)cc2N1C1CC1 | > 1 µM | > 40 µM | > 40 µM | > 40 µM | > 40 µM | > 40 µM | > 1 µM | > 1 µM | > 40 µM

— ChEMBL document CHEMBL4364276, “Discovery of 4-phenyl-2H-benzo[b][1,4]oxazin-3(4H)-one derivatives as potent and orally active PI3K/mTOR dual inhibitors” (Eur J Med Chem, 2019)
